Data as given in BigSolDB 2.1.

Cc1ncc(CO)c(CO)c1O.Cl
solubility (mole fraction)
Settings	278.15 K	283.15 K	288.15 K	293.15 K	298.15 K	303.15 K	308.15 K	313.15 K
in ethanol	0.000447	0.000484	0.000557	0.000651	0.000801	0.000989	0.00118	0.00143
in methanol	0.00221	0.00253	0.0028	0.00329	0.00373	0.00425	0.00486	0.00549
in water	0.0105	0.0123	0.0144	0.0168	0.0191	0.022	0.025	0.0286
